Holding throughout (assay type): cell-based
In assay [1] the test system is MDA-MB-231 estrogen receptor-negative breast cancer cell line. Put plainly: […]-GLO luminescent cell viability assay, MDA-MB-231. To be noted: Homo sapiens, MDA-MB-231 cells, 5000 cells/well, 72 h at 37° C. The protocol:
(§1) All the compounds are tested in three cell lines. Different concentration of compounds, ranging from about 0.01 nM to about 100,000 nM were delivered to 5×10^3 cells per well, which were then incubated for three days at 37° C., followed by CTG assay.
(§2) In this assay, the number of viable cells in culture is determined based on the quantification of ATP present, which signals the presence of metabolically active cells. Damaged cells are not detected as the ATP leaked from these cells is quickly consumed by ATPases that are also released upon damage). The amount of ATP is determined using a system based on luciferase and D-luciferin resulting in light generation.
(§3) The cell lines were plated in 13, 96 well plates at a density of 5000 cells/well in total volumes of 50 μL in phenol-red free medium and incubated for overnight.
(§4) 25 μL of 40 nM estradiol should be added to all appropriate wells on the plate. […] 25 μL of stocks (containing the compounds to be tested, DMSO and phenol-red free medium) were added to cells and medium already on plate. 50 μL of medium were added to media wells, and 50 μL of mix (contain 32 mL DMSO+768 mL phenol-red free medium) to all vehicle control wells.
(§5) Luminescence results were read on TriLux Luminometer. The luminescent signal is proportional to the number of active cells present in culture. […] As a consequence, the number of metabolically active cells can be directly derived from the luminescent signal using a specific calibration curve. Data were expressed as percentage of untreated control (i.e. treatment value-blank/vehicle value blank), mean±SE for three replications.

The test system of assay [2] is MCF-7 estrogen receptor-positive breast cancer cells. Description: […]-GLO luminescent cell viability assay, MCF-7. To be noted: Homo sapiens, MCF7, MCF-7 cells, 5000 cells/well, 72 h at 37° C. Here is the method:
as §1, §2, §3, §4, §5

In the next assay the test system is Ishikawa cells. Put plainly: […]-GLO luminescent cell viability assay, Ishikawa. To be noted: Homo sapiens, 5000 cells/well, 72 h at 37° C. Here is the method:
as §1, §2, §3, §4, §5

In brackets after ≈: the same amount, converted by molar mass.

For the compound `O=C(NN1CCc2ccccc2C1)c1ccccc1` [Redda-GM-3-15, N-(3,4-dihydroisoquinolin-2-(1H)-yl)benzamide], the IC50 (in general, the concentration needed to halve the response being measured) came to 0.74 µg/mL (≈ 2.93 µM) in assay [1], 0.63 µg/mL (≈ 2.5 µM) in assay [2] and 0.23 µg/mL (≈ 0.912 µM) in the assay on Ishikawa cells.

For the compound `COc1ccc(S(=O)(=O)NN2CCc3ccccc3C2)cc1` [Redda-CM-3-13, N-(3,4-dihydroisoquinolin-2(1H)-yl)-4-methoxybenzenesulfonamide], the IC50 in assay [1] was 0.76 µg/mL (≈ 2.39 µM); in assay [2], 1.27 µg/mL (≈ 3.99 µM); in the assay on Ishikawa cells it was 0.45 µg/mL (≈ 1.41 µM).

As for `Cc1ccc(C(=O)NN2CCc3ccccc3C2)cc1` [Redda-GM-3-19], the 50% inhibitory concentration (IC50) in assay [1] was 1.02 µg/mL (≈ 3.83 µM); in assay [2] it was 0.7 µg/mL (≈ 2.63 µM); in the assay with Ishikawa cells it was 0.44 µg/mL (≈ 1.65 µM).

As for `COc1ccc(C(=O)NN2CCc3ccccc3C2)cc1` [Redda-GM-3-16, N-(3,4-dihydroisoquinolin-2(1H)-yl)-4-methoxybenzamide], the IC50 in assay [1] came out at 0.78 µg/mL (≈ 2.76 µM); in assay [2], 0.93 µg/mL (≈ 3.29 µM); with Ishikawa cells, 0.21 µg/mL (≈ 0.744 µM).

In the case of `O=C(NN1CCc2ccccc2C1)c1ccc(Cl)cc1` [Redda-GM-3-18, 4-chloro-N-(3,4-dihydroisoquinolin-2(1H)-yl)bemamide], the concentration for half-maximal inhibition (IC50) in assay [1] is 0.8 µg/mL (≈ 2.79 µM); in assay [2], 0.71 µg/mL (≈ 2.48 µM); in the assay with Ishikawa cells, 0.61 µg/mL (≈ 2.13 µM).
